The values below come from publication PMC8758724, “Molecular mechanism of agonism and inverse agonism in ghrelin receptor” (Nature Communications, 2022).

In assay [1] the test system is wild-type ghrelin receptor. The assay can be described thus: IP1 accumulation, wild-type ghrelin receptor, HEK293 cells, 37 °C 2 h, Cisbio IP1 kit. The class given is cell-based, human. As to conditions: WT. The protocol:
Fig. 1 Overall structures of ghrelin receptors bound to inverse agonist and agonist. a Dose-dependent responses of endogenous agonist ghrelin, inverse agonist PF-05190457 and antagonist compound 21 containing 10 nM ghrelin peptide at wild-type ghrelin receptor measured by cellular IP1 accumulation assays. […] Data represent the mean ± SEM from n = 3 biologically independent experiments performed in triplicate. b View from within the plane of the membrane. The inverse agonist-bound ghrelin receptor is represented as a wheat cartoon, and PF-05190457 is shown as a marine blue sphere. Cryo-EM structure of the agonist ghrelin-bound ghrelin receptor-Gαo1-scFv16 complex. c Ghrelin peptides and receptors are shown as deep salmon spheres and aquamarine cartoons, respectively. The Go heterotrimer and scFv16 are shown in the gray cartoon. d View from the extracellular side of the membrane. […]
IP accumulation was measured using Cisbio IP1 assay kit (Cisbio, 62IPAPEB), which has been previously described. […] IP1 was quantified using Synergy H1 microplate reader (BioTek) with excitation at 320 nm, emission at 620 nm, and 665 nm. The accumulation of IP1 was calculated according to a standard dose–response curve in GraphPad Prism 8 (GraphPad Software). […]

Another assay has as its system ghrelin receptor mutants. The experiment in a line: IP1 accumulation, ghrelin receptor mutants, HEK293 cells, 37 °C 2 h (compound 21 containing 10 nM ghrelin). It counts as cell-based, human. The text has this: Fig. 2 The binding mode of PF-05190457 with the ghrelin receptor. a The detailed binding mode of PF-05190457 in the orthosteric pocket of the ghrelin receptor. The |Fo| − |Fc| omit map (contoured at 3.0 σ) for PF-05190457 (shown as marine blue sticks). […] The diazaspiro core is shown in pink, arm-1 is sky blue, and arm-2 is light green. The red solid lines indicate hydrogen bonds involved in interactions with the side chains of key residues. d–f Key residues of the ghrelin receptor (wheat sticks) involved in ligand binding in cavity III (d), cavity I (e), and cavity IV (f). The binding pocket is highly hydrophobic, and the particular polar network is shown as black dotted lines. g IP1 accumulation induced by the inverse agonist PF-05190457 and antagonist compound 21. Bars represent the difference in the calculated potency (pIC50) of the inverse agonist for mutations relative to the WT ghrelin receptor. Data are colored according to extent of effect. nd not detected, **P < 0.01, ***P < 0.001 (one-way analysis of variance (ANOVA) followed by Dunnett’s test, compared with the response of WT, P < 0.001, P < 0.001, P < 0.001, P > 0.999, nd, nd, P = 0.05, nd, P < 0.001, P < 0.001, nd, nd, nd, nd, nd, nd, P < 0.01, P = 0.264, P < 0.001, nd, P < 0.001, nd from left to right). Data represent the mean ± SEM from n = 3 biologically independent experiments performed in triplicate. […] The salt bridges between E124^3.33 and R283^6.55 as well as between R102^2.63 and Q120^3.29, are broken upon PF-05190457 binding.
To measure the activity of inverse agonist PF-05190457 (Tocris, Cat. No. 6350), we carried out IP1 accumulation assays for ghrelin receptor independent of agonist. The agonist ghrelin and antagonist compound 21 were also performed as the control. The cDNA of ghrelin receptor subcloned into pcDNA3.1(+) expression vector with a HA signal sequence followed by a Flag tag at the N-terminus. Point mutations used in our study were generated by using Q5 site-Directed Mutagenesis kit (NEB). All the constructs were verified by sequencing. The constructs were expressed in HEK293 cells using PEI transfection reagent (YEASEN, 40815es03) according to the manufacturer’s instruction. Cells were harvested 48 h post transfection.
IP accumulation was measured using Cisbio IP1 assay kit (Cisbio, 62IPAPEB), which has been previously described. In brief, the harvested cells were distributed in a low volume 96-well dish and stimulated with increased concentration of inverse agonist PF-05190457, agonist ghrelin peptide or antagonist compound 21 containing 10 nM ghrelin peptide at 37 °C for 2 h. After that, d2-labeled IP1 and cryptate-labeled anti-IP1 monoclonal antibody dissolved in Lysis Buffer were added to the wells. After 1 h incubation at room temperature. IP1 was quantified using Synergy H1 microplate reader (BioTek) with excitation at 320 nm, emission at 620 nm, and 665 nm. The accumulation of IP1 was calculated according to a standard dose–response curve in GraphPad Prism 8 (GraphPad Software). Data were represented as the mean ± SEM from three independent experiments and all experiments were repeated at least three times.
Supplementary Fig. 6: IP1 accumulation assay.
(a) Expression level of the ghrelin receptor mutants. Data represent the mean ± SEM from three independent experiments performed in triplicate. ns, not significant, **p < 0.01, ***p < 0.001 (one-way analysis of variance [ANOVA] followed by Dunnett’s test, compared with the response […]
0.001, p=0.996, p=0.008, p=0.999 from left to right). Data represent the mean ± SEM from n=3 biologically independent experiments performed in triplicate.
(b) IP1 accumulation measurement induced by inverse agonist PF-05190457(left), agonist ghrelin (middle) and antagonist compound 21 (right). ns, not significant; nd, not detected; ***p < 0.001 […]
< 0.001, nd, nd, nd, p=0.264, nd, nd from left to right). Data represent the mean ± SEM from […]

For assay [2], the system named is ghrelin receptor. As to conditions: cited from earlier work. The text has this:
The ghrelin receptor is activated by endogenous ghrelin peptide and contains constitutive activity as ~50% of the maximal activity in the absence of ghrelin peptide.

The subject of assay [3] is ghrelin receptor. To be noted: cited from earlier work. The text has this: (50% activity independent of the endogenous ligand ghrelin). The ghrelin receptor exerts a wide range of physiological functions, including appetite regulation, alcohol consumption, adipocyte metabolism, and glucose homeostasis[11]–[14], due to its broad distribution and multiple signaling pathways through divergent G-protein coupling or β-arrestin recruitment. The endogenous agonist ghrelin is a 28-amino acid peptide secret ...
The source holds these as a separate data set.

Entries after “also recorded” stand apart in the source; their conditions may differ.

Take `Cc1cc(-c2ccc3c(c2)CC[C@H]3N2CC3(CCN(C(=O)Cc4cn5cc(C)sc5n4)CC3)C2)ncn1` [PF-05190457]: in assay [1], the “effect on constitutive (basal) activity of the ghrelin receptor” value is reported as “functions as an inverse agonist to significantly reduce basal activity; also recorded: significantly reduced”. For the same molecule, the “inverse agonism potency, effect of mutation” value in the assay with ghrelin receptor mutants (D99^2.60A) was “significantly reduced the potency of inverse agonism”; in the assay with ghrelin receptor mutants (E124^3.33A) it was “impaired the inverse agonism potency”; with ghrelin receptor mutants (F119^3.28A) it was “essential for the inverse agonism potency”; in the assay with ghrelin receptor mutants (Q120^3.29A), “essential for the inverse agonism potency”; in the assay on ghrelin receptor mutants (R283^6.55A), “impaired the inverse agonism potency”; with ghrelin receptor mutants (S308^7.38A), “decreased the inverse agonism potency”. For the same molecule, the “inverse agonistic activity, effect of mutation” value in the assay on ghrelin receptor mutants (F279^6.51A), in the assay on ghrelin receptor mutants (F312^7.42A) and in the assay on ghrelin receptor mutants (W276^6.48A) was “significantly reduced the inverse agonistic activity; also recorded: significantly reduced the potency of inverse agonism” throughout.

Regarding `Cc1nc2ccc(Oc3ccc(Br)cc3F)nc2c(=O)n1C[C@H]1CCCN(C(C)C)C1` [compound 21], in the assay on ghrelin receptor [2], the “effect on constitutive activity of the ghrelin receptor” value is “had no effect on the constitutive activity of the ghrelin receptor”. Besides, the “potency, effect of mutation” value with ghrelin receptor mutants (F279^6.51A), with ghrelin receptor mutants (F312^7.42A) and in the assay on ghrelin receptor mutants (W276^6.48A) was “impaired the potency” throughout.

As to “unacylated form of ghrelin: unacylated form of ghrelin (GSSFLSPEHQRVQQRKESKKPPAKLQPR; Ghrelin-28 unacylated; UniProt Q9UBU3 24-51, looked up)”, in the assay with ghrelin receptor [3], the “activation of the ghrelin receptor” value was “does not bind or activate the ghrelin receptor at all” and the “binding to the ghrelin receptor” value is given as “does not bind”.
